Test results from patent publication US5856334A, “Imidazoquinoline derivatives” (Mochida Pharmaceutical Co., Ltd., priority 1994, dated 1999).
“And” between values parts separate entries of the source, which are not always exact repeats. Identical values can stand only once.

Key:
eosinophils in BALF = experiment: Activity on Model for the Increase of Eosinophils in the Rat Bronchial Alveolar Lavage Fluid (Sephadex G200 sensitization); format: in vivo, Sd male rats; details: peroral, once a day, 10 administrations
Protocol: Sd male rats (8 wk old), divided in groups each consisting of five animals, were sensitized by an intravenous injection into tail vein of Sephadex G200 suspension (1 mL), that had been prepared to give a concentration of 0.75 mg/ml physiological saline. Seven days later, the same treatment was conducted; three days later, each rat was fitted with an tracheal cannula under anesthetization with pentobarbital and 7 mL of physiological saline containing 1% EDTA was injected via the cannula and recovered; this procedure was repeated three times to collect the BALF, which were centrifuged at 130×g for 10 min. Physiological saline (200 μl) containing 1% EDTA was added to the pellet to prepare a cell suspension. Part of the cell suspension was resuspended in fetal bovine serum containing 1% EDTA, smeared on a glass slide with a centrifugal smearing device and subjected to Difquick staining. Thereafter, the total WBC count and the eosinophil count were taken to determine the percentage of eosinophils in the total WBC. The total number of WBCs in the cell suspension was measured with a hemocytometer after staining with a Turck solution. Multiplying the percentage of eosinophils in the total WBC by the total number of WBCs provided the number of eosinophils in the cell suspension.
Each of the test compounds was suspended in 5% aqueous gum arabic and administered perorally to mice immediately after the initial sensitization on a once-a-day basis for a total of 10 administrations (test compound-treated group). The mice neither sensitized nor administered the test compounds (untreated group), as well as the mice that were sensitized but not administered the test compounds (control group) were similarly administered 5% aqueous gum arabic perorally.
Inhibition of the Increase of Eosinophils (%)={1-(test compound
administered group-untreated group)/(control group-untreated

[1] = Experiment on Acute Toxicity (oral, survival until 7th day); parameters: species or system ICR male mice; details: mouse, in vivo, 1000 mg/kg, peroral, until the 7th day of the administration, read-out: No. of Survivals (converted)
Excerpt: ICR male mice (body weight=ca. 35 g) weighing about 30 g were divided in groups each consisting of one or three animals and administered perorally each of the test compounds as suspended in 5% aqueous gum arabic. The mice were then examined for their survival until the 7th day of the administration.

[2] = system: intraperitoneal eosinophils; experiment: Activity on Mouse Intraperitoneal Hypereosinophilic Model (Ascaris suum extract sensitization); format: in vivo, BALB/c male mice; details: peroral, once a day, 10 administrations
Protocol: BALB/c male mice (body weight=ca. 25 g), divided in groups each consisting of five animals, were sensitized by intraperitoneal injection of physiological saline (0.11 mL) containing 0.1 mg of Ascaris suum extract. Seven days later, the same treatment was conducted; three days later, the animals were bled to death and injected intraperitoneally with 3 mL of physiological saline containing 1% dipotassium ethylenediaminetetraacetate (EDTA) and massaged on the abdominal part for about 30 sec. The abdominal part was incised to collect the intraperitoneal fluid, which was centrifuged at 130×g for 10 min. Fetal bovine serum (500 μl) containing 1% EDTA was added to the pellet to prepare a cell suspension. Part of the cell suspension was smeared on a glass slide with a centrifugal smearing device and subjected to Difquick staining. Thereafter, the total white blood cell (WBC) count and the eosinophil count were taken to determine the percentage of eosinophils in the total WBC. The total number of WBCs in the cell suspension was measured with an automatic hemocytometer. Multiplying the percentage of eosinophils in the total WBC by the total number of WBCs provided the number of eosinophils in the cell suspension. […] The mice neither sensitized nor administered the test compounds (untreated group), as well as the mice that were sensitized but not administered the test compounds (control group) were similarly administered 5% aqueous gum arabic perorally. Inhibition of the Increase in Eosinophils (%)={1-(test compound administered group-untreated group)/(control group-untreated group)}×100

Compound | Inhibition of the Increase of Eosinophils in BALF (%) (eosinophils in BALF; 30 mg/kg/day) | survival at 168 h [1] | Inhibition of the Increase of Eosinophils (%) ([2]; 30 mg/kg/day) | Inhibition of the Increase of Eosinophils (%) ([2]; 100 mg/kg/day) | further results
CON=C1CCn2c(CCc3ccccc3)nc3cccc1c32 [Example 35, 5,6-dihydro-6-methoxyimino-2-(2-phenylethyl)-4H-imidazo[4,5,1-ij]quinoline] | 73% | 100% | – | – | –
OC1CCn2c(CCc3ccccc3)nc3cccc1c32 (centres unmarked) [Example 4, 5,6-dihydro-2-(2-phenylethyl)-4H-imidazo[4,5,1-ij]quinolin-6-ol] | 90% | 100% | 67% | 57% | –
c1ccc(CCc2nc3cccc4c3n2CCC4)cc1 [Example 13, 5,6-dihydro-2-(2-phenylethyl)-4H-imidazo[4,5,1-ij]quinoline] | – | 100% | 49% | 64% | –
O=C(O)c1ccccc1C(=O)OC1CCn2c(CCc3ccccc3)nc3cccc1c32 (centres unmarked) [Example 41, 5,6-dihydro-6-(o-carboxybenzoyloxy)-2-(2-phenylethyl)-4H-imidazo[4,5,1-ij]quinoline] | – | 100% | – | – | –
O=C(O)c1cccc(COC2CCn3c(CCc4ccccc4)nc4cccc2c43)c1C(=O)O (centres unmarked) [Example 64, 6-(2,3-dicarboxyphenyl)methoxy-5,6-dihydro-2-(2-phenylethyl)-4H-imidazo[4,5,1-ij]quinoline] | – | – | 57% | – | –
O=C(O)c1ccccc1COC1CCn2c(CCc3ccccc3)nc3cccc1c32 (single isomer, unassigned; (+)) [Example 24, (+)-6-(2-carboxyphenyl)methoxy-5,6-dihydro-2-(2-phenylethyl)-4H-imidazo[4,5,1-ij]quinoline] | – | – | 45% | – | –
Cl.NC1CCn2c(CCc3ccccc3)nc3cccc1c32 (centres unmarked) [Example 18, 5,6-dihydro-2-(2-phenylethyl)-4H-imidazo[4,5,1-ij]quinolin-6-amine hydrochloride] | – | – | 53% | – | –
CC(=O)OCC(=O)[C@@]1(O)CC[C@H]2[C@@H]3CCC4=CC(=O)C=C[C@]4(C)[C@H]3[C@@H](O)C[C@@]21C [Prednisolone Acetate, 11β, 17α, 21-trihydroxypregna-1,4-diene-3,20-dione 21-acetate, reference compound] | – | – | – | – | Inhibition of the Increase of Eosinophils (%) ([2]; 10 mg/kg/day): 65%; Inhibition of the Increase of Eosinophils in BALF (%) (eosinophils in BALF; 10 mg/kg/day): 76% and 69%
O=C1CCn2c(CCc3ccccc3)nc3cccc1c32 [Example 1, 4,5-dihydro-2-(2-phenylethyl)-6H-imidazo[4,5,1-ij]quinolin-6-one] | 68% | 100% | 48% | 68% | –
OC1CCn2c(CCc3ccccc3)nc3cccc1c32 (single isomer, unassigned; (+)) [Example 11, (+)-5,6-dihydro-2-(2-phenylethyl)-4H-imidazo[4,5,1-ij]quinolin-6-ol] | – | – | 43% | – | –
